Measured values as given in patent US20240122930A1, “INTEGRIN INHIBITORS AND USES THEREOF IN COMBINATION WITH OTHER AGENTS” (Pliant Therapeutics, Inc., priority 2022, published 2024).
Entries after “also recorded” stand apart in the source; their conditions may differ.

How the values were obtained:
lung Col1a1 expression [1] = experiment: Precision cut lung slices, chronic bleomycin exposure, versus and with nintedanib and pirfenidone; assay type: cell-based, mice (C57BL/6); conditions: chronic bleomycin PCLS, 7 days culture, single agents
Procedure: Mice (C57BL/6) were administered 3 U/kg of bleomycin (Teva Pharmaceuticals; North Wales, PA) on Day 0 and 1 U/kg of bleomycin on days 14, 28, 42 and 56 via oropharyngeal aspiration while under anesthesia. At day 70, 14 days following the final bleomycin insult, precision cut lung slices were obtained. […] The lobes were then subjected to precision slicing to obtain samples for culture using a microtome (Compresstome VF-300-OZ, Precisionary; Greenville, NC). Individual slices were distributed in a multiwell culture plate and cultured for 7 days under control (DMSO) and test compound conditions. The viability of the slices over the course of culturing was confirmed by WST-1 assay of mitochondrial activity. During the culture period, slices in the control group were treated with DMSO and slices in the test group were treated with a DMSO solution of one of: […]

[2] = tested on: explanted human lung tissue from patients with idiopathic pulmonary fibrosis; experiment: Fibrosis-related gene expression (nCounter Fibrosis Panel) in precision cut lung slices; assay type: cell-based
From the text: Briefly, tissue samples from patients with IPF were acquired at the time of lung transplantation. […] Treated slices were lysed in mRNA-compatible buffer for gene expression analysis. For this study, the lysate from n=6 slices per treatment per lung were pooled for analysis using the nCounter Fibrosis Panel (Nanostring) on the nCounter Max analyzer (Nanostring). This commercially available panel of 770 genes includes genes related to initial tissue damage response, chronic inflammation, proliferation of pro-fibrotic cells, and tissue modification leading to fibrotic disease. Technical quality control and normalization of raw Nanostring mRNA count data was performed using an R framework developed by Bhattacharya et al. (Bhattacharya A. et al., Brief Bioinform. 2021 May 20; 22(3):bbaa163; herein incorporated by reference in its entirety). The R packages limma (see URL www.bioconductor.org/packages/release/bioc/html/limma.html, which is incorporated herein by reference in its entirety) and voom (Law, C.

COL1A1 expression = experiment: Precision cut lung slices from human IPF explants, COL1A1 expression; assay type: cell-based; conditions: human IPF PCLS; for expression of COL1A1: 7 days, treatment alone: nintedanib 75 nM, pirfenidone 50 μM
From the text: Explanted lung tissue was obtained from human IPF subjects and inflated with agarose as described in the preceding examples. Biopsy cores were obtained from the agarose-inflated lung tissue. The biopsy cores were subjected to precision slicing to obtain several hundred μm thick. Individual slices were distributed in a multiwell culture plate and cultured for […] under control (DMSO) and test compound conditions. The viability of the slices over the course of culturing was confirmed by WST-1 assay of mitochondrial activity.
PCLS from 5-7 idiopathic pulmonary fibrosis (IPF) lung tissue samples were cultured for seven days with one of: DMSO; Compound 5 at 200 nM; nintedanib at 75 nM; pirfenidone at 50 μM; a combination of Compound 5 at 200 nM and nintedanib at 75 nM; a combination of Compound 5 at 200 nM and pirfenidone at 50 μM; or an ALK5 inhibitor at 1 μM. […] FIG. 6D is a bar graph showing relative expression of COL1A1 in precision cut lung slices (PCLS) from idiopathic pulmonary fibrosis (IPF) lung tissue upon exposure to Compound 5, clinical standard of care compounds nintedanib (Nin) and pirfenidone (Pirf), and an ALK5 inhibitor, all versus DMSO control.
PCLS from a single IPF lung tissue sample were cultured for seven days with Compound 5 at concentrations of 200 pM, 2 nM, 60 nM, 200 nM, and 1 μM, along with 0.1% DMSO control and an ALK5 inhibitor at 1 μM. […] COL1A1 expression is also graphed for the PCLS in the presence of 0.1% DMSO control, and an ALK5 inhibitor at 1 μM.

[3] = tested on: participants with idiopathic pulmonary fibrosis (IPF); conditions: FIG. 26, histograms from left to right; from USPI or literature; cited from earlier work
[4] = molecular target: recombinant human integrin αVβ6 (Homo sapiens, UniProt P06756+P18564); experiment: Solid phase integrin αVβ6 binding assay; conditions: TGFβ1 LAP, values presented in four ranges, read-out: αvβ6 Inhibition IC50 (nM)-range
Chain of recombinant human integrin αVβ6 (P06756 31-992 limits assumed): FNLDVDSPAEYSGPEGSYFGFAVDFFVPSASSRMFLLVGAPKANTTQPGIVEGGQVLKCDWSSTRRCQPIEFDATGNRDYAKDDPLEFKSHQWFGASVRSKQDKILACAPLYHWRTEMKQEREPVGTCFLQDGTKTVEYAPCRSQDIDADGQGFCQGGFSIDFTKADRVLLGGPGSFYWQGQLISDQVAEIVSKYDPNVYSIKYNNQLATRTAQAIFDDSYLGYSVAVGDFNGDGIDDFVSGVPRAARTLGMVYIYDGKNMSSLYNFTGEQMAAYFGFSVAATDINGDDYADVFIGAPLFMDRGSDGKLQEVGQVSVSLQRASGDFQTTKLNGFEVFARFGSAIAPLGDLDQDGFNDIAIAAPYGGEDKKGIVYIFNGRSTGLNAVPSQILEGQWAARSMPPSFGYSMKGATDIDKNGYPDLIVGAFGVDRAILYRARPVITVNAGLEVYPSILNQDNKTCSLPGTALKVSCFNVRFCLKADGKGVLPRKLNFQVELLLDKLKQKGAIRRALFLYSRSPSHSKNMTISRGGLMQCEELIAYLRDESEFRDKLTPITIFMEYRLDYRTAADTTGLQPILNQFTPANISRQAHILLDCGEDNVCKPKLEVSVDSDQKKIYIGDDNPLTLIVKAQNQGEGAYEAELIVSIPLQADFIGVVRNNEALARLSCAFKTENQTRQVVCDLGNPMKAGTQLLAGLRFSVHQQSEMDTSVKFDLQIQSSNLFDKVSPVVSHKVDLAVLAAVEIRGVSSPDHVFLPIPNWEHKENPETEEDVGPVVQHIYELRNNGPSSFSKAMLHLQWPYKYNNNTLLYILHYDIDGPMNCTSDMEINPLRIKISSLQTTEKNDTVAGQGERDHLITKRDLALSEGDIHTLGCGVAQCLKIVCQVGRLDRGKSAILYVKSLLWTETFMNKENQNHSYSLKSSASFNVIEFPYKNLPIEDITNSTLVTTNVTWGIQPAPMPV
Chain of recombinant human integrin αVβ6 (P18564 22-707 limits assumed): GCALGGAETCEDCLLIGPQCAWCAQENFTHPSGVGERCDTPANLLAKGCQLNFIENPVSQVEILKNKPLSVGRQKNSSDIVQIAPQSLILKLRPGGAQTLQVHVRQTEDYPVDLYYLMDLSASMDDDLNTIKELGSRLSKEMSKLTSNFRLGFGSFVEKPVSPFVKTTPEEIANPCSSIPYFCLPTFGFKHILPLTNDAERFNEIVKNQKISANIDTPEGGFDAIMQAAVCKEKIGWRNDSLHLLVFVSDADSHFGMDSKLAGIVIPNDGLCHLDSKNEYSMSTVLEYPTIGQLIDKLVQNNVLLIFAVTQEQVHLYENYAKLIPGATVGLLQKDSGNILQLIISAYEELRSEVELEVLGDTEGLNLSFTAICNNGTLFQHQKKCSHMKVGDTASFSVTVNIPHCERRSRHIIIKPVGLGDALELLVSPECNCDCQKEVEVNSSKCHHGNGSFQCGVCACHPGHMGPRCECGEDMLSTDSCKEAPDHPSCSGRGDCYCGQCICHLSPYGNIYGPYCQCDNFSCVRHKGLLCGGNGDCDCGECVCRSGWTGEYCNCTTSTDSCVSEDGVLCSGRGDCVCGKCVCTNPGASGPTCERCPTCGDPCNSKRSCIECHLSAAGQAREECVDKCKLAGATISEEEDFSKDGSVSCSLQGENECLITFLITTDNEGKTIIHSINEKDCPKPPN
Procedure: Microplates were coated with recombinant human integrin αVβ6 (2 μg/mL) in PBS (100 μL/well 250 C, overnight). The coating solution was removed, washed with wash buffer (0.05% Tween 20; 0.5 mM MnCl2; in 1×TBS). The plate was blocked with 200 μL/well of Block Buffer (1% BSA; 5% sucrose; 0.5 mM MnCl2; in 1×TBS) at 370 C for 2 h. Dilutions of testing compounds and recombinant TGFβ1 LAP (0.67 μg/mL) in binding buffer (0.05% BSA; 2.5% sucrose; 0.5 mM MnCl2; in 1×TBS) were added. The plate was incubated for 2 hours at 250 C, washed, and incubated for 1 hour with Biotin-Anti-hLAP. Bound antibody was detected by peroxidase-conjugated streptavidin. The IC50 values for testing compounds were calculated by a four-parameter logistic regression.
The compounds tested were compound samples prepared according to procedures described in the Synthetic Examples section, with the stereochemical purity as indicated in the Examples.
A third series of exemplary compounds was selected for testing in the solid phase integrin αVβ6 binding assay. The compounds tested were compound samples prepared according to procedures described in the Synthetic Examples section, with the stereochemical purity as indicated in the Examples. […] Bound antibody was detected by peroxidase-conjugated streptavidin. The IC50 values for testing compounds were calculated by a four-parameter logistic regression.

lung Col1a1 expression [5] = experiment: Precision cut lung slices, chronic bleomycin exposure, Col1a1 expression; assay type: cell-based, mice (C57BL/6); conditions: chronic bleomycin PCLS, 7 days culture
Procedure: Mice (C57BL/6) were administered 3 U/kg of bleomycin (Teva Pharmaceuticals; North Wales, PA) on Day 0 and 1 U/kg of bleomycin on days 14, 28, 42 and 56 via oropharyngeal aspiration while under anesthesia. At day 70, 14 days after the final bleomycin insult, precision cut lung slices were obtained. […] The lobes were then subjected to precision slicing to obtain samples for culture using a microtome (Compresstome VF-300-OZ, Precisionary; Greenville, NC). Individual slices were distributed in a multiwell culture plate and cultured for 7 days under control (DMSO) and test compound conditions. The viability of the slices over the course of culturing was confirmed by WST-1 assay of mitochondrial activity. […] Compound 5; and the small molecule ALK5 inhibitor. […] Compound 5 was run at approximate IC50 for inhibition of TGF-beta activation by αVβ6.

[6] = tested on: Type I Collagen gene Col1a1 expression; experiment: Precision cut lung slices, acute bleomycin exposure, Col1a1 expression; assay type: cell-based, mice (C57BL/6); conditions: acute bleomycin PCLS, 3 days culture; integrin inhibitors at IC50 for TGF-beta activation, pan-αV and ALK5 inhibitors at 10× IC50
Procedure: Mice (C57BL/6) were administered 3 U/kg of bleomycin (Teva Pharmaceuticals; North Wales, PA) on day 0 via oropharyngeal aspiration while under anesthesia. On day 14, precision cut lung slices were obtained. Following euthanization, 2% low gelling temp agarose was injected into the mouse lungs via the trachea. […] The lobes were then subjected to precision slicing to obtain samples for culture using a microtome (Compresstome VF-300-OZ, Precisionary; Greenville, NC). Individual slices were distributed in a multiwell culture plate and cultured for 3 days under control (DMSO) and test compound conditions. The viability of the slices over the course of culturing was confirmed by WST-1 assay of mitochondrial activity.

[7] = single treatment, adj. p-value <0.05

Cc1ccc(=O)n(-c2ccccc2)c1 [pirfenidone, 5-methyl-1phenyl-2-1(H)-pyridone, reference compound]
lung Col1a1 expression vs DMSO vehicle control slices (lung Col1a1 expression [1]): slight increase
Genes Down-regulated with Compound 5 and Pirfenidone Alone or in Combination, region F ([2]; FIG. 24 Venn region F: altered by Compound 5 or pirfenidone alone, but not by Compound 5 in combination with pirfenidone): CXCR4; also recorded: PECAM1
Genes Up-regulated with Compound 5 and Pirfenidone Alone or in Combination, region G ([2]; FIG. 24 Venn region G: only altered by pirfenidone in the absence of Compound 5): COL7A1 and MMP7 and PTGS2
logFC KNG1 [2, 7]: −1.1
expression of COL1A1 (COL1A1 expression): did not significantly reduce

COC(=O)c1ccc2c(c1)NC(=O)/C2=C(\Nc1ccc(N(C)C(=O)CN2CCN(C)CC2)cc1)c1ccccc1 [nintedanib, 3-Z-[1-(4-(N-((4-methyl-piperazin-1-yl)-methylcarbonyl)-N-methyl-amino)-anilino)-1-phenyl-methylene]-6-methoxycarbonyl-2-indolinone, reference compound]
lung Col1a1 expression vs DMSO vehicle control slices (lung Col1a1 expression [1]): slight increase
Genes up-regulated, Venn region G (FIG. 24) ([2]; IPF precision cut lung slices, 7 days, only altered by nintedanib in the absence of Compound 5): ACTA2 and CCL19 and COL6A5 and ELN and IGF1 and PYGM
logFC CYP2J2 [2, 7]: 1.025
expression of COL1A1 (COL1A1 expression): did not significantly reduce

[O-][S+]1CCc2nc(N3CCC(c4ncc(Cl)cn4)CC3)nc(NC3(CO)CCC3)c21 (stereo not shown) [BI 1015550]
% Incidence of Diarrhea in IPF Clinical Trials [3]: 17%

COCCN(CCCCc1ccc2c(n1)NCCC2)CCC(Nc1ncnc2cnccc12)C(=O)O (stereo not shown) [Compound 17, 4-((2-methoxyethyl)(4-(5,6,7,8-tetrahydro-1,8-naphthyridin-2-yl)butyl)amino)-2-(pyrido[3,4-d]pyrimidin-4-ylamino)butanoic acid]
IC50 [4]: < 50 nM

Cc1cccc(-c2n[nH]cc2-c2ccc(F)c(-c3cnn(CCO)c3)c2)n1 [small molecule ALK5 inhibitor, 4-[2-Fluoro-5-[3-(6-methyl-2-pyridinyl)-1H-pyrazol-4-yl]phenyl]-1H-pyrazole-1-ethanol, reference compound]
lung Col1a1 expression, normalized to DMSO control slices (lung Col1a1 expression [5]): greatest decrease
Type I Collagen gene Col1a1 expression, normalized to DMSO control slices [6]: greatest decrease
lung Col1a1 expression vs DMSO vehicle control slices (lung Col1a1 expression [1]): substantial, statistically significant (p<0.0001 vs vehicle) decrease
lung Col1a1 expression, normalized to DMSO control slices (COL1A1 expression; 3 days, 3G9 ≥400 ng/mL, Compound 5 179 nM, ALK5 inhibitor 1 μM): decrease in lung Col1a1 expression

CC(C)(C)c1cc(Br)cc([C@H](CC(=O)O)NC(=O)CNC(=O)c2cc(O)cc(NC3=NCC(O)CN3)c2)c1 (stereo partly drawn) [second pan-αV small molecule inhibitor, (3S)—N-[3-hydroxy-5-[(1,4,5,6-tetrahydro-5-hydroxy-2-pyrimidinyl)amino]benzoyl]glycyl-3-[3-bromo-5-(1,1-dimethylethyl)phenyl]-β-alanine]
Type I Collagen gene Col1a1 expression, normalized to DMSO control slices [6]: decreased Type I Collagen gene Col1a1 expression comparably
